According to a melting point compilation (Tetko et al.; mined from patent text by program, amines drawn as free bases though some values may be those of a salt):

| melting point | SMILES |
| --- | --- |
| 124 to 125 °C | O=C(CCCCCl)c1ccc2c(c1)Cc1cc(C(=O)CCCCCl)ccc1-2 |
| 157 °C | O=C(NC1Cc2cccc(-c3ccc(F)cc3)c2C1)c1ccc(F)cc1 (stereo not given) |
| 180 to 184 °C | CC(=O)SC[C@@H](C(=O)N[C@H](CC(C)C)c1nnn[nH]1)C(F)(F)F |
| 185 to 187 °C | O=c1[nH]nnn1-c1ccc(Cl)cc1F |
| 169 to 170 °C | CN(C)c1ccc(C(=O)N[C@H](Cc2ccc(C(F)(F)F)cc2)[C@@H](O)c2ccc(F)cc2)c2ccccc12 (racemic) |
| 103 to 104 °C | COc1ccc(OC)c(C=CC(=O)C=Cc2cc(OC)ccc2OC)c1 |
| 134 to 136 °C | Cc1nc(N2CCN(CC3CCCCC3)C2=O)sc1C(=O)NCc1cccnc1 |
| 73 to 74 °C | COc1ccc(OCC(O)CO)cc1 (stereo not given) |
| 226 °C | CC(C)n1cc(-c2nc(C(N)=O)c(N)nc2-c2ccc(F)c(F)c2)ccc1=O |
| 172 to 173 °C | CCCCn1c(COc2ccccc2)nc2c(N)nc3ccccc3c21 |
| 225 to 227 °C | CC(C)(CCO)c1ccc(C(=O)Nc2cn3cc(-n4ccnc4)ccc3n2)cc1 |
| 96 °C | Cc1ccc(-c2nc(-c3cnccc3C)sc2F)cc1 |
| 108 °C | Fc1cc2c(cc1F)Sc1cc(F)c(F)cc1S2 |
| 133 to 134 °C | COC(=O)C(C#N)=CC1=C(N2CCCC2)CCCC1 |
| 103 to 104 °C | COc1ccc(C(C#Cc2ccccc2)Cc2ncc(C)o2)cc1OC1CCCC1 (racemic) |
| 206 to 207 °C | O=C(Nc1ccc2nc(CN3CCCC3)ccc2c1)N1CCC(c2ccc(F)cc2)CC1 |
| 169 to 170 °C | COC(C(=O)O)c1ccc(OCc2ccccn2)cc1 (stereo not given) |
| 118 °C | c1ccc2c(c1)SCCc1c-2n(CCN2CCCCC2)c2ccccc12 |
| 157 °C | O=c1nc(-c2cccc(CCc3nnn[nH]3)n2)sc2ccccc12 |
| 209 to 211 °C | COCCNc1c(N)cc(C(=O)O)cc1S(N)(=O)=O |
| 105 °C | Cc1cc(O)ccc1S(C)(=O)=O |
| 90 to 93 °C | COc1ccc2c(c1)CCC(CC#N)C2=O (stereo not given) |
| 173 to 174 °C | CCCCn1c(=S)c2c(ncn2CC(C)=O)n(CC)c1=O |
| 156 °C | Nc1ccnc(-c2nnn(Cc3cc(C(F)(F)F)cc(C(F)(F)F)c3)c2-c2ccccc2)c1C(=O)c1ccccc1Cl |
| 232 to 235 °C | COc1cnc(OC)n2c(N)nnc12 |
| 135 to 137 °C | O=C(O)CCCC(=O)c1cccc([N+](=O)[O-])c1 |
| 203 to 204 °C | Nc1nc(/C(=N/OC23CC4CC(CC(C4)C2)C3)C(=O)O)cs1 |
| 133 °C | CC(C)C1COC(=O)N1C(=O)CCCCOCc1ccccc1 (stereo not given) |
| 115 to 116 °C | O=C1CC(c2ccccc2)NC(=O)C1C(=O)c1ccccc1F (stereo not given) |

Second part, the compound before the results:

| SMILES | melting point |
| --- | --- |
| Cc1c(CNCC2CCOCC2)n(C)c2c(C)c(NC(=O)c3ccc(OC[C@@H]4CCCO4)cc3)ccc12 | 173 to 174 °C |
| O=C(O)C1SCSCC12OCCO2 (stereo not given) | 195 to 197 °C |
| N#Cc1ccc(Oc2cccc(N)c2)cc1C#N | 171 to 172 °C |
| Cc1c(NC(=O)c2ccc(-c3ccc(F)cc3)cc2)ccc2cc(CN3CCN(C)CC3)cnc12 | 152 to 153 °C |
| Oc1ccc(-c2ncc3ncc(Nc4cccnc4)cc3n2)cc1 | > 268 °C |
| CNc1ccc(C#N)cc1 | 85 to 87 °C |
| COc1ccccc1-n1c(=O)[nH]c2c(C(N)=O)nc(N[C@H]3CC[C@H](OC(N)=O)CC3)nc21 | 157 to 160 °C |
| NC(=O)N1C(=O)C(C(=O)c2ccoc2)c2ncc(Cl)cc21 (stereo not given) | > 250 °C |
| Clc1ccc(Cn2cc(CCn3ccnc3)c3ccccc32)cc1 | 78 to 80 °C |
| CCSc1nc2c(C(=O)OCOC)sc(C)c2[nH]1 | 128 to 130 °C |
| Oc1ccccc1OCCOCCOc1ccccc1O | 85 °C |
| CCOC(=O)c1cc(Cc2cccc3ccccc23)sc1NCC(C)C | 57 to 59 °C |
| N#CC1CN1C(=O)NS(=O)(=O)c1ccccc1 (stereo not given) | 103 to 108 °C |
| CCCCNc1c(NCc2ccccc2)cc(C(=O)O)cc1S(N)(=O)=O | 198 to 199 °C |
| Cc1c(C)c2c(c(C)c1O)SC(CCCI)O2 (stereo not given) | 72 to 75 °C |
| O=C(O)CCCc1ccc(CNC(=O)C2Cc3ccccc3N2S(=O)(=O)c2ccc(-c3cccc(C(F)(F)F)c3)cc2)cc1 (stereo not given) | 75 °C |
| COc1cc(C(=O)O)c(OC)cc1C | 120 °C |
| O=C(c1ccc2nonc2c1)N1CC2CCC1C2 (stereo not given) | 92 to 93 °C |
| O=C1N[C@@H](CC2CCCCC2)[C@H]1O | 147 to 148 °C |
| COC(=O)C(C)(C)CCOc1ccc(C2=NNC(=O)CC2)cc1Cl | 109 to 110 °C |
| OCCc1ccc(Nc2ncc3c(n2)-c2ccccc2C(c2ccc(Cl)c(Cl)c2)C3)cc1 (stereo not given) | 94 to 96 °C |
| CC(=N)Nc1cccc([N+](=O)[O-])c1 | 226 to 228 °C |
| COC(=O)NN=C(C)c1c[nH]c(-c2ccccc2)n1 | 226 to 227 °C |

| SMILES | melting point |
| --- | --- |
| Cc1oc(-c2ccc3ccccc3c2)nc1COc1ccc(COc2ncccc2C#N)cc1 | 145 to 146 °C |
| CC(=O)NC[C@H]1CN(c2ccc(N3CCC(Cc4nnn[nH]4)CC3)c(F)c2)C(=O)O1 | 164 to 166 °C |
| CCOC(=O)[C@H](Cc1ccc(-c2c(OC)cc(CO)cc2OC)cc1)NC(=O)OC(C)(C)C | 142 to 143 °C |
| COc1ccc(Cn2nnnc2C(=O)Nc2cc(C#N)cc(NC(=O)c3nnnn3Cc3ccc(OC)cc3)c2Cl)cc1 | 223 to 225 °C |
| CCOC(=O)C(C)(C)Oc1ccc(-c2ccc(CCNC(=O)Cc3ccccc3)cc2)cc1 | < 20 °C |
| FC(F)(F)C1(c2cc(Cl)cc(Cl)c2)CC(c2cnc(Cl)c(Cl)c2)=NO1 (stereo not given) | 155 to 157 °C |
| Nc1cc([N+](=O)[O-])ccc1CO | 126 to 128 °C |
| CON=C1C=C(NC(=O)N(N)CCO)C(Cl)=C(C)C1Cl (stereo not given) | 152 to 156 °C |
| CCN1CC(=O)Nc2cc(Nc3ncc(Cl)c(Nc4ccccc4S(=O)(=O)N(C)C)n3)c(OC)cc2C1 | 175 °C |
| CCOC(=O)CCCN(C(=O)c1ccc(F)cc1)c1ccccc1-c1ccccc1 | 83 to 84 °C |
| Cc1ccc(Sc2cc(C(=O)O)ccc2C(=O)O)cc1 | 326 °C |
| N#CCN1C(=O)COc2cc(F)ccc21 | 111 to 113 °C |
| Brc1cc2c(cc1Br)Sc1ccccc1S2 | 160 to 161 °C |
| O=C1c2cccc3c(N4CCCC4)c(Br)cc(c23)C(=O)N1O | 170 to 172 °C |
| CCC(=O)N(C(=O)CC)c1c(I)cc(Br)cc1S(=O)(=O)Cl | 127 to 132 °C |
| CCOCCOC(=O)C(=O)Nc1nc(-c2ccc(OC)cc2)cs1 | 130 to 133 °C |
| CC1(C)C(C=C(Cl)Cl)C1(C)C(=O)O (stereo not given) | 137 to 138 °C |
| CC(NC(=NC#N)Nc1cccnc1)c1ccccc1 (stereo not given) | 185 to 187 °C |
| C[Si](C)(C)Nc1ccn([Si](C)(C)C)c(=O)n1 | 252 to 256 °C |
| CC(C)COc1c(-c2ccc(S(N)(=O)=O)cc2)cnn(CC(F)(F)F)c1=O | 170 to 172 °C |
| CC(=O)N[C@H](CF)CCC(=O)O | 80 to 83 °C |
| CCOC(=O)c1c(CS(=O)c2nccn2C)nc2cc(OC)c(OC)cc2c1-c1ccc(OC)c(OC)c1 (stereo not given) | 193 to 194 °C |
| O=C1NCN2CCC1CC2 | 125 to 126 °C |
